Consider eight compounds from patent US20260022142A1, “MACROCYCLIC IMMUNOMODULATORS” (Bristol-Myers Squibb Company, priority 2022, published 2026).

Bridge positions count the residues as written; N and C are the ends. Square brackets hold non-standard residues; d marks the D form. Peptide text beside a SMILES is read from it. * marks the point of attachment. ξ: configuration not given here. Phe(3-CF3) = N[C@@H](Cc1cccc(C(F)(F)F)c1)C(=O)O; Phe(4-COOH) = N[C@@H](Cc1ccc(C(=O)O)cc1)C(=O)O; Bip = N[C@@H](Cc1ccc(-c2ccccc2)cc1)C(=O)O; NH(CH2)14COOH = O=C(O)CCCCCCCCCCCCCCN*; Phe(3-Me) = Cc1cccc(C[C@H](N)C(=O)O)c1; NH(CH2)12COOH = O=C(O)CCCCCCCCCCCCN*; Val(3-OH) = CC(C)(O)[C@H](N)C(=O)O; Cha = N[C@@H](CC1CCCCC1)C(=O)O; Thr(3ξ) = CC(O)[C@H](N)C(=O)O; Carboxymethyl = O=C(O)C*; Orn = NCCC[C@H](N)C(=O)O; Dab = NCC[C@H](N)C(=O)O; AEEA = NCCOCCOCC(=O)O

The assay deals with T1, PD-1/PD-L1 interaction (PE-labeled human PD-L1-Ig binding to Jurkat cell line over-expressing human PD-1) (Homo sapiens, UniProt Q15116).
T1 construct: expressed in transfected cells; host or cells: Jurkat
T1 sequence (Q15116 25-288): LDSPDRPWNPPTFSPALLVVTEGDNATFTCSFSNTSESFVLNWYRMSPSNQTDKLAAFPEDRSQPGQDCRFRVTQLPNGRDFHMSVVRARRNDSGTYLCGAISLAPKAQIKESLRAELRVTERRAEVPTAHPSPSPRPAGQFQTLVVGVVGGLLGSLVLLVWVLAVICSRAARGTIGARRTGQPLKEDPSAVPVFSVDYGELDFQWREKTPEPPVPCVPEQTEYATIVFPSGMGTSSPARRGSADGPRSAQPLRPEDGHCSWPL
The assay can be described thus: Jurkat-PD-1 Cell Binding High-Content Screening Assay (CBA). It is filed as cell-based. The note with it: Jurkat cell line over-expressing human PD-1; PE-labeled PD-L1-Ig 20 nM final; read-out: Jurkat hPD1-PDL1 IC50. The essentials:
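Jurkat cells stably over-expressing human PD-1 were seeded in DMEM with 10% fetal calf serum and pre-incubated with compound for 2 h at 37° C. PE-labeled human PD-L1-Ig was then added at 20 nM final for 1 hour, after which cells were fixed with paraformaldehyde, Hoechst-stained and imaged by high-content microscopy.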
With `Cc1cccc(C[C@@H]2NC(=O)[C@H](CC(=O)O)NC(=O)[C@H](Cc3ccc(OCC(=O)O)cc3)NC(=O)[C@H](C(C)O)NC(=O)CSC[C@@H](C(=O)N[C@@H](CCN)C(=O)NCCOCCOCC(=O)NCCCCCCCCCCCCC(=O)O)NC(=O)[C@H](CC(=O)O)NC(=O)[C@H](C(C)C)NC(=O)[C@H](CC3CCCCC3)NC(=O)[C@H](CCN)NC(=O)[C@@H](CC(C)C)NC(=O)[C@H](CCCN)NC(=O)[C@H](Cc3ccc(C(=O)O)cc3)NC(=O)[C@H](Cc3ccc(-c4ccccc4)cc3)NC(=O)[C@H](Cc3ccc(C(=O)O)cc3)NC2=O)c1` (stereo partly drawn) [Compound 3843] ({CH2CO}-[Thr(3ξ)]Y(Carboxymethyl)D[Phe(3-Me)][Phe(4-COOH)][Bip][Phe(4-COOH)][Orn][dL][Dab][Cha]VDC[Dab][AEEA]-{NH(CH2)12COOH}; thioether N-14), the IC50 was 40.7 nM. To `Cc1cccc(C[C@@H]2NC(=O)[C@H](CC(=O)O)NC(=O)[C@H](Cc3ccc(OCC(=O)O)cc3)NC(=O)[C@H](C(C)O)NC(=O)CSC[C@@H](C(=O)N[C@@H](CCN)C(=O)NCCCCCCCCCCCCC(=O)O)NC(=O)[C@H](CO)NC(=O)[C@H](C(C)(C)O)NC(=O)[C@H](CC3CCCCC3)NC(=O)[C@H](CCN)NC(=O)[C@@H](CC(C)C)NC(=O)[C@H](CCCN)NC(=O)[C@H](Cc3ccc(OCC(=O)O)cc3)NC(=O)[C@H](Cc3ccc(-c4ccccc4)cc3)NC(=O)[C@H](Cc3ccc(OCC(=O)O)cc3)NC2=O)c1` (stereo partly drawn) [Compound 3844] ({CH2CO}-[Thr(3ξ)]Y(Carboxymethyl)D[Phe(3-Me)]Y(Carboxymethyl)[Bip]Y(Carboxymethyl)[Orn][dL][Dab][Cha][Val(3-OH)]SC[Dab]-{NH(CH2)12COOH}; thioether N-14) belongs 15.2 nM; to `CC(C)C[C@H]1NC(=O)[C@H](CCCN)NC(=O)[C@H](Cc2ccc(C(=O)O)cc2)NC(=O)[C@H](Cc2ccc(-c3ccccc3)cc2)NC(=O)[C@H](Cc2ccc(C(=O)O)cc2)NC(=O)[C@H](Cc2cccc(C(F)(F)F)c2)NC(=O)[C@H](CC(=O)O)NC(=O)[C@H](Cc2ccc(OCC(=O)O)cc2)NC(=O)[C@H](Cc2ccc(OCC(=O)O)cc2)NC(=O)CSC[C@@H](C(=O)N[C@@H](CCN)C(=O)NCCCCCCCCCCCCCCC(=O)O)NC(=O)[C@H](CC(=O)O)NC(=O)[C@H](C(C)C)NC(=O)[C@H](CC2CCCCC2)NC(=O)[C@H](CCN)NC1=O` [Compound 3848] ({CH2CO}-Y(Carboxymethyl)Y(Carboxymethyl)D[Phe(3-CF3)][Phe(4-COOH)][Bip][Phe(4-COOH)][Orn][dL][Dab][Cha]VDC[Dab]-{NH(CH2)14COOH}; thioether N-14), 317 nM; to `CC(C)C[C@H]1NC(=O)[C@H](CCCN)NC(=O)[C@H](Cc2ccc(C(=O)O)cc2)NC(=O)[C@H](Cc2ccc(-c3ccccc3)cc2)NC(=O)[C@H](Cc2ccc(C(=O)O)cc2)NC(=O)[C@H](Cc2cccc(C(F)(F)F)c2)NC(=O)[C@H](CC(=O)O)NC(=O)[C@H](Cc2ccc(OCC(=O)O)cc2)NC(=O)[C@H](Cc2ccc(OCC(=O)O)cc2)NC(=O)CSC[C@@H](C(=O)N[C@@H](CCN)C(=O)NCCCCCCCCCCCCCCC(=O)O)NC(=O)[C@H](CCC(=O)O)NC(=O)[C@H](C(C)C)NC(=O)[C@H](CC2CCCCC2)NC(=O)[C@H](CCN)NC1=O` [Compound 3849] ({CH2CO}-Y(Carboxymethyl)Y(Carboxymethyl)D[Phe(3-CF3)][Phe(4-COOH)][Bip][Phe(4-COOH)][Orn][dL][Dab][Cha]VEC[Dab]-{NH(CH2)14COOH}; thioether N-14), 250 nM. To `CC(=O)NCCCC[C@@H]1NC(=O)[C@H](C(C)(C)O)NC(=O)[C@H](CC2CCCCC2)NC(=O)[C@H](CCN)NC(=O)[C@@H](CC(C)C)NC(=O)[C@H](CCCN)NC(=O)[C@H](Cc2ccc(OCC(=O)O)cc2)NC(=O)[C@H](Cc2ccc(-c3ccccc3)cc2)NC(=O)[C@H](Cc2ccc(OCC(=O)O)cc2)NC(=O)[C@H](Cc2cccc(C(F)(F)F)c2)NC(=O)[C@H](CC(=O)O)NC(=O)[C@H](Cc2ccc(OCC(=O)O)cc2)NC(=O)[C@H](Cc2ccc(OCC(=O)O)cc2)NC(=O)CSC[C@@H](C(=O)N[C@@H](CCN)C(=O)NCCOCCOCC(=O)NCCCCCCCCCCCCCCC(=O)O)NC1=O` [Compound 3850] ({CH2CO}-Y(Carboxymethyl)Y(Carboxymethyl)D[Phe(3-CF3)]Y(Carboxymethyl)[Bip]Y(Carboxymethyl)[Orn][dL][Dab][Cha][Val(3-OH)]K(Ac)C[Dab][AEEA]-{NH(CH2)14COOH}; thioether N-14) belongs 282 nM. To `Cc1cccc(C[C@@H]2NC(=O)[C@H](CC(=O)O)NC(=O)[C@H](Cc3ccc(OCC(=O)O)cc3)NC(=O)[C@H](C)NC(=O)CSC[C@@H](C(=O)N[C@@H](CCN)C(=O)NCCOCCOCC(=O)NCCCCCCCCCCCCCCC(=O)O)NC(=O)[C@H](Cc3cnc[nH]3)NC(=O)[C@H](C(C)(C)O)NC(=O)[C@H](CC3CCCCC3)NC(=O)[C@H](CCN)NC(=O)[C@@H](CC(C)C)NC(=O)[C@H](CCCN)NC(=O)[C@H](Cc3ccc(OCC(=O)O)cc3)NC(=O)[C@H](Cc3ccc(-c4ccccc4)cc3)NC(=O)[C@H](Cc3ccc(OCC(=O)O)cc3)NC2=O)c1` [Compound 3851] ({CH2CO}-AY(Carboxymethyl)D[Phe(3-Me)]Y(Carboxymethyl)[Bip]Y(Carboxymethyl)[Orn][dL][Dab][Cha][Val(3-OH)]HC[Dab][AEEA]-{NH(CH2)14COOH}; thioether N-14) belongs 125 nM; to `CC(C)C[C@H]1NC(=O)[C@H](CCCN)NC(=O)[C@H](Cc2ccc(OCC(=O)O)cc2)NC(=O)[C@H](Cc2ccc(-c3ccccc3)cc2)NC(=O)[C@H](Cc2ccc(OCC(=O)O)cc2)NC(=O)[C@H](Cc2cccc(C(F)(F)F)c2)NC(=O)[C@H](CC(=O)O)NC(=O)[C@H](Cc2ccc(OCC(=O)O)cc2)NC(=O)[C@H](C)NC(=O)CSC[C@@H](C(=O)N[C@@H](CCN)C(=O)NCCCCCCCCCCCCCCC(=O)O)NC(=O)[C@H](Cc2cnc[nH]2)NC(=O)[C@H](C(C)(C)O)NC(=O)[C@H](CC2CCCCC2)NC(=O)[C@H](CCN)NC1=O` [Compound 3852] ({CH2CO}-AY(Carboxymethyl)D[Phe(3-CF3)]Y(Carboxymethyl)[Bip]Y(Carboxymethyl)[Orn][dL][Dab][Cha][Val(3-OH)]HC[Dab]-{NH(CH2)14COOH}; thioether N-14), 142 nM.

For `Cc1cccc(C[C@@H]2NC(=O)[C@H](CC(=O)O)NC(=O)[C@H](Cc3ccc(OCC(=O)O)cc3)NC(=O)[C@H](C)NC(=O)CSC[C@@H](C(=O)N[C@@H](CCN)C(=O)NCCOCCOCC(=O)NCCOCCOCC(=O)NCCCCCCCCCCCCCCC(=O)O)NC(=O)[C@H](CO)NC(=O)[C@H](C(C)(C)O)NC(=O)[C@H](CC3CCCCC3)NC(=O)[C@H](CCN)NC(=O)[C@@H](CC(C)C)NC(=O)[C@H](CCCN)NC(=O)[C@H](Cc3ccc(C(=O)O)cc3)NC(=O)[C@H](Cc3ccc(-c4ccccc4)cc3)NC(=O)[C@H](Cc3ccc(C(=O)O)cc3)NC2=O)c1` [Compound 3853] ({CH2CO}-AY(Carboxymethyl)D[Phe(3-Me)][Phe(4-COOH)][Bip][Phe(4-COOH)][Orn][dL][Dab][Cha][Val(3-OH)]SC[Dab][AEEA][AEEA]-{NH(CH2)14COOH}; thioether N-14), the IC50 was found to be 104 nM.
